# Measured values as given in patent publication US10857127B2, “Vaginal delivery systems containing selective estrogen receptor modulator (SERM) and uses thereof” (Azure Biotech, Inc., priority 2016, dated 2020).
# Values joined by “and” are separate entries in the source; they are usually repeats but may differ in a detail not shown here. Equal entries are not always repeated. Structures can show the parent of a compound that is named as a salt.
# Experiments:
# [1] = Dissolution studies of Lasofoxifene in organic solvents and surfactants; assay type: physicochemical; settings: for Dissolution of Lasofoxifene in various organic solvents and surfactants, 2 mg/ml: Lasofoxifene 2 mg/ml in the labelled solvent/surfactant; for Dissolution of Lasofoxifene in various organic solvents and surfactants, 2 mg/ml / Dissolution of Lasofoxifene in various organic solvents and surfactants, 3 mg/ml / Dissolution of Lasofoxifene in various organic solvents and surfactants, 6 mg/ml: visual examination; for Dissolution of Lasofoxifene in various organic solvents and surfactants, 3 mg/ml: Lasofoxifene 3 mg/ml in the labelled solvent/surfactant; for Dissolution of Lasofoxifene in various organic solvents and surfactants, 6 mg/ml: Lasofoxifene 6 mg/ml in the labelled solvent/surfactant
# Description: The solubility of Lasofoxifene was investigated by screening various organic solvents and surfactants in increasing concentrations. The term “formulation” may refer to a pharmaceutical composition comprising […] pharmaceutically acceptable excipients.
# First, 1 mg of Lasofoxifene was weighed into Eppendorf vessels and 500 μl of organic solvents and surfactants as listed in Table 20 were added. In cases of insufficient dissolution of the API, samples were treated with ultrasound for 30 min and, if necessary, heated to 50° C. while shaking (300 rpm). Afterwards, samples were examined visually regarding drug dissolution. In case of entire dissolution, the experiment was repeated with increasing drug concentrations until maximum dissolution was achieved. In addition, further organic solvents and surfactants were tested.
# [2] = as above; assay type: physicochemical; settings: Lasofoxifene 1 mg/ml in the labelled solvent/surfactant; visual examination
# vaginal epithelium [3] = assay: Ovariectomized rat dosing frequency study: mucification of vaginal epithelium (PAS staining, 0-4 scale); assay type: in vivo; settings: individual animals
# Text: (§1) A total of 96 young, about 6-8 weeks old, female Sprague Dawley rats were used in this pilot study. The rats were randomized by body weight into six (6) per group and sixteen (16) groups. Ninety (N=90) of the animals were ovariectomized (OVX), and six (N=6) of the animals have a sham OVX surgery. One group of six (6) animals were terminated along with the sham-operated group at Day-14 post-OVX surgery. Three groups of eighteen (18) animals were respectively terminated along with the vehicle group at Day-14, Day-17 or Day-21 post-OVX surgery. The dosing regimens, starting on Day 14 post OVX, by inserting a capsule containing the desired Lasofoxifene formulations (e.g., Test Articles F-1-L, F-1-H, F-2-L, F-2-H) into vaginal tract under brief general anesthesia.
# (§2) Rats were assigned to treatment groups by randomization in BioBook system (IDBS) based on the body weights. Grouping according to the below table 1. Each rat was dosed with ready to use solution, […] into vaginal tract with a syringe.
# (§3) Annotation: Groups 1 (N=6): Day-0 vehicle; dose once at 100 μL on Day-0 at 14-day post OVX, and terminate at Day-14 post OVX. Groups 2 (N=6): Day-3 vehicle; dose once at 100 μL on Day-0 at 14-day post OVX, and terminate at Day-17 post OVX. Groups 3 (N=6): Day-7 vehicle; dose once at 100 μL on Day-0 at 14-day post OVX, and terminate at Day-21 post OVX. Groups 4 (N=6): Day-0 sham: terminate at Day-14 post sham-operation. Groups 5 (N=6): F-1-L; dose once at 0.3 μg/kg (100 μL) on Day-0 at 14-day post OVX, and terminated at Day-3 after dosing. Groups 6 (N=6): F-1-H; dose once at 3.0 μg/kg (100 μL) on Day-0 at 14-day post OVX, and terminated at Day-3 after dosing. Groups 7 (N=6): F-2-L; dose once at 0.3 μg/kg (100 μL) on Day-0 at 14-day post OVX, and terminated at Day-3 after dosing. Groups 8 (N=6): F-2-H; dose once at 3.0 μg/kg (100 μL) on Day-0 at 14-day post OVX, and terminated at Day-3 after dosing. Groups 9 (N=6): F-1-L; dose once at 0.3 μg/kg (100 μL) on Day-0 at 14-day post OVX, and terminated at Day-7 after dosing. Groups 10 (N=6): F-1-H; dose once at 3.0 μg/kg (100 μL) on Day-0 at 14-day post OVX, and terminated at Day-7 after dosing. Groups 11 (N=6): F-2-L; dose once at 0.3 μg/kg (100 μL) on Day-0 at 14-day post OVX, and terminated at Day-7 after dosing. Groups 12 (N=6): F-2-H; dose once at 3.0 μg/kg (100 μL) on Day-0 at 14-day post OVX, and terminated at Day-7 after dosing. Groups 13 (N=6): F-1-L; dose twice at respectively 0.3 μg/kg (100 μL) on Day-0 and Day-4 at 14-day and 18-day post OVX, and terminated at Day-7 after dosing. Groups 14 (N=6): F-1-H; dose twice at respectively 3.0 μg/kg (100 μL) on Day-0 and Day-4 at 14-day and 18-day post OVX, and terminated at Day-7 after dosing. Groups 15 (N=6): F-2-L; dose twice at respectively 0.3 μg/kg (100 μL) on Day-0 and Day-4 at 14-day and 18-day post OVX, and terminated at Day-7 after dosing. Groups 16 (N=6): F-2-H; dose twice at respectively 3.0 μg/kg (100 μL) on Day-0 and Day-4 at 14-day and 18-day post OVX, and terminated at Day-7 after dosing. Body Weight
# (§4) All animals were humanely sacrificed by CO2 and the vaginal and uterine wet-weight were collected from each, and about 0.5 mL blood were collected for analysis of serum cholesterol level. Each uterus and vagina was weighed separately and was placed in 10% NBF for at least 48 hours before being sent to Histology Laboratory for tissue processing. The paraffin blocks of these tissues were sectioned, about 4-8 μm in thickness, and one section were stained with H & E for general microscopic evaluation, and one section were stained with PAS for assessment of mucification of the epithelium.
# The PAS stained sections were used to evaluate the amount of mucification by visual approximation on a 0-4 scale, with the 4 stands for the highest amount.
# Data were analyzed using GraphPad Prism software (GraphPad Software, Inc., La Jolla, Calif., USA) and are expressed as the mean±SD. […]
# vaginal epithelium [4] = assay: Ovariectomized rat dosing frequency study: thickness of the vaginal epithelium (H & E histomorphometry); assay type: in vivo; design: unit not given here; settings: individual animals
# Text: as §1, §2, §3, §4
# The H & E stained sections were used to measure the height of the vaginal epithelium at minimum of ten (10) sites per slide. Photomicrographs of the slides were included in the appendix or burned on a DVD disc to accompany the final report. […]
# Uterine [5] = assay: Ovariectomized rat dosing frequency study: mucification, Uterine (0-4 scale); assay type: in vivo; settings: individual animals
# Uterine [6] = assay: Ovariectomized rat dosing frequency study: epithelium thickness, Uterine; assay type: in vivo; design: unit not given here; settings: individual animals
smiles,measurement,setting,value
"CCCCOC(=O)CC(O)(CC(=O)OCCCC)C(=O)OCCCC [Tributyl citrate (TBC), Tributyl citrate]",Dissolution of Lasofoxifene in more lipophilic excipients,[1]; in the labelled excipient,could not be dissolved
same,"Dissolution of Lasofoxifene in various organic solvents and surfactants, 1 mg/ml",[2],not dissolved
"CCOC(=O)CC(O)(CC(=O)OCC)C(=O)OCC [Triethyl citrate (TEC), Triethyl citrate]","Dissolution of Lasofoxifene in various organic solvents and surfactants, 1 mg/ml",[2],not dissolved
"CO[C@H]1CO[C@H]2[C@@H]1OC[C@H]2OC [Isosorbide dimethyl ether (DMI), Isosorbide dimethyl ether]","Dissolution of Lasofoxifene in various organic solvents and surfactants, 2 mg/ml",[1],partially
same,"Dissolution of Lasofoxifene in various organic solvents and surfactants, 3 mg/ml",[1],not dissolved
same,"Dissolution of Lasofoxifene in various organic solvents and surfactants, 1 mg/ml",[2],dissolved*
"OCC(O)CO [Glycerol 85%, Glycerol]","Dissolution of Lasofoxifene in various organic solvents and surfactants, 2 mg/ml",[1],partially
same,"Dissolution of Lasofoxifene in various organic solvents and surfactants, 3 mg/ml",[1],not dissolved
same,"Dissolution of Lasofoxifene in various organic solvents and surfactants, 1 mg/ml",[2],dissolved
"CCOC(=O)CC(CC(=O)OCC)(OC(C)=O)C(=O)OCC [Triethyl acetyl citrate (TEAC), Triethyl acetyl citrate]","Dissolution of Lasofoxifene in various organic solvents and surfactants, 1 mg/ml",[2],not dissolved
Oc1ccc2c(c1)CC[C@H](c1ccccc1)[C@@H]2c1ccc(OCCN2CCCC2)cc1 [Lasofoxifene],"Mucification of vaginal epithelium, Vagina",vaginal epithelium [3]; group G3,2 (4×) and 3 (2×)
same,"Mucification of vaginal epithelium, Vagina",vaginal epithelium [3]; group G5,3 and 1 (3×) and 2 (2×)
same,"Mucification of vaginal epithelium, Vagina",vaginal epithelium [3]; group G6,2 (2×) and 1 (4×)
same,"Mucification of vaginal epithelium, Vagina",vaginal epithelium [3]; group G7,1 (2×) and 2 (4×)
same,"Mucification of vaginal epithelium, Vagina",vaginal epithelium [3]; group G8,2 (2×) and 1 (3×) and 3
same,"Mucification of vaginal epithelium, Vagina",vaginal epithelium [3]; group G9,3 (3×) and 1 and 2 (2×)
same,"Mucification of vaginal epithelium, Vagina",vaginal epithelium [3]; group G10,3 (3×) and 2 (3×)
same,"Mucification of vaginal epithelium, Vagina",vaginal epithelium [3]; group G11,3 (2×) and 4 and 1 and 2 (2×)
same,"Mucification of vaginal epithelium, Vagina",vaginal epithelium [3]; group G12,3 (4×) and 2 and 4
same,"Mucification of vaginal epithelium, Vagina",vaginal epithelium [3]; group G13,4 (4×) and 3 (2×)
same,"Mucification of vaginal epithelium, Vagina",vaginal epithelium [3]; group G14,4 (3×) and 3 (3×)
same,"Mucification of vaginal epithelium, Vagina",vaginal epithelium [3]; group G15,2 (2×) and 3 (4×)
same,"Mucification of vaginal epithelium, Vagina",vaginal epithelium [3]; group G16,4 and 3 (4×) and 2
same,"Thickness of the vaginal epithelium, Vagina",vaginal epithelium [4]; group G3,23 (2×) and 22 and 21 and 15 and 18
same,"Thickness of the vaginal epithelium, Vagina",vaginal epithelium [4]; group G5,26 and 30 and 32 (2×) and 27 and 16
same,"Thickness of the vaginal epithelium, Vagina",vaginal epithelium [4]; group G6,29 (2×) and 24 and 41 and 27 and 22
same,"Thickness of the vaginal epithelium, Vagina",vaginal epithelium [4]; group G7,27 and 18 and 21 and 20 (2×) and 17
same,"Thickness of the vaginal epithelium, Vagina",vaginal epithelium [4]; group G8,32 (2×) and 24 and 28 and 14 and 26
same,"Thickness of the vaginal epithelium, Vagina",vaginal epithelium [4]; group G9,21 and 15 (2×) and 25 and 17 and 18
same,"Thickness of the vaginal epithelium, Vagina",vaginal epithelium [4]; group G10,27 and 19 and 17 (2×) and 14 and 22
same,"Thickness of the vaginal epithelium, Vagina",vaginal epithelium [4]; group G11,17 (2×) and 20 and 15 and 25 and 19
same,"Thickness of the vaginal epithelium, Vagina",vaginal epithelium [4]; group G12,16 and 21 and 17 and 18 and 20 and 19
same,"Thickness of the vaginal epithelium, Vagina",vaginal epithelium [4]; group G13,20 (3×) and 18 and 23 and 19
same,"Thickness of the vaginal epithelium, Vagina",vaginal epithelium [4]; group G14,15 and 23 and 13 and 16 and 18 and 25
same,"Thickness of the vaginal epithelium, Vagina",vaginal epithelium [4]; group G15,21 and 22 and 23 (3×) and 25
same,"Thickness of the vaginal epithelium, Vagina",vaginal epithelium [4]; group G16,22 and 28 and 20 and 19 (2×) and 16
same,"Mucification, Uterine",Uterine [5]; group G3,0
same,"Mucification, Uterine",Uterine [5]; group G5,0
same,"Mucification, Uterine",Uterine [5]; group G6,0
same,"Mucification, Uterine",Uterine [5]; group G7,0
same,"Mucification, Uterine",Uterine [5]; group G8,0
same,"Mucification, Uterine",Uterine [5]; group G9,0
same,"Mucification, Uterine",Uterine [5]; group G10,0
same,"Mucification, Uterine",Uterine [5]; group G11,0
same,"Mucification, Uterine",Uterine [5]; group G12,0
same,"Mucification, Uterine",Uterine [5]; group G13,0
same,"Mucification, Uterine",Uterine [5]; group G14,0
same,"Mucification, Uterine",Uterine [5]; group G15,0
same,"Mucification, Uterine",Uterine [5]; group G16,0
same,"Thickness, Uterine",Uterine [6]; group G3,6 and 7 (3×) and 8 (2×)
same,"Thickness, Uterine",Uterine [6]; group G5,9 (4×) and 8 (2×)
same,"Thickness, Uterine",Uterine [6]; group G6,8 (3×) and 9 and 6 (2×)
same,"Thickness, Uterine",Uterine [6]; group G7,8 (3×) and 7 (2×) and 9
same,"Thickness, Uterine",Uterine [6]; group G8,6 and 8 (2×) and 10 (2×) and 7
same,"Thickness, Uterine",Uterine [6]; group G9,7 (2×) and 9 (2×) and 6 (2×)
same,"Thickness, Uterine",Uterine [6]; group G10,9 (3×) and 8 (2×) and 11
same,"Thickness, Uterine",Uterine [6]; group G11,5 and 7 (4×) and 9
same,"Thickness, Uterine",Uterine [6]; group G12,9 and 7 (3×) and 6 and 8
same,"Thickness, Uterine",Uterine [6]; group G13,6 (2×) and 7 and 8 (2×) and 9
same,"Thickness, Uterine",Uterine [6]; group G14,8 (3×) and 6 and 7 and 9
same,"Thickness, Uterine",Uterine [6]; group G15,9 and 8 (5×)
same,"Thickness, Uterine",Uterine [6]; group G16,6 (2×) and 7 (3×) and 8
"OCC(O)CO [Glycerol 99%, Glycerol]","Dissolution of Lasofoxifene in various organic solvents and surfactants, 2 mg/ml",[1],partially
same,"Dissolution of Lasofoxifene in various organic solvents and surfactants, 3 mg/ml",[1],not dissolved
same,"Dissolution of Lasofoxifene in various organic solvents and surfactants, 1 mg/ml",[2],dissolved*
"C[S+](C)[O-] [DMSO, dimethyl sulfoxide]","Dissolution of Lasofoxifene in various organic solvents and surfactants, 2 mg/ml",[1],dissolved
same,"Dissolution of Lasofoxifene in various organic solvents and surfactants, 3 mg/ml",[1],dissolved
same,"Dissolution of Lasofoxifene in various organic solvents and surfactants, 6 mg/ml",[1],dissolved
same,"Dissolution of Lasofoxifene in various organic solvents and surfactants, 1 mg/ml",[2],dissolved
CCCCCCCC/C=C\CCCCCCCC(=O)OCC [Ethyloleate],"Dissolution of Lasofoxifene in various organic solvents and surfactants, 1 mg/ml",[2],not dissolved
"CCCCOC(=O)CC(CC(=O)OCCCC)(OC(C)=O)C(=O)OCCCC [Tributyl acetyl citrate (TBAC), Tributyl acetyl citrate]","Dissolution of Lasofoxifene in various organic solvents and surfactants, 1 mg/ml",[2],not dissolved
"CC(O)CO (stereo not drawn) [Propylene glycol (PG), Propylene glycol]","Dissolution of Lasofoxifene in various organic solvents and surfactants, 2 mg/ml",[1],dissolved*
same,"Dissolution of Lasofoxifene in various organic solvents and surfactants, 3 mg/ml",[1],partially
same,"Dissolution of Lasofoxifene in various organic solvents and surfactants, 6 mg/ml",[1],not dissolved
same,"Dissolution of Lasofoxifene in various organic solvents and surfactants, 1 mg/ml",[2],dissolved
"CCOCCOCCO [Transcutol (TC), Diethylene glycol monoethyl ether]","Dissolution of Lasofoxifene in various organic solvents and surfactants, 2 mg/ml",[1],dissolved
same,"Dissolution of Lasofoxifene in various organic solvents and surfactants, 3 mg/ml",[1],dissolved
same,"Dissolution of Lasofoxifene in various organic solvents and surfactants, 1 mg/ml",[2],dissolved
